Source: BindingDB's records for PubMed 3702863 (R. J. Reynolds Tobacco, 1986)

Molecular target: Nicotinic acetylcholine receptor (Rattus leucopus, UniProt Q62594)
Sequence (Q62594 whole entry): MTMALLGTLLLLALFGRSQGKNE

Structure (SMILES) | Ki [µM]
COc1cc(CC(C)N)cc(OC)c1OC (configuration not stated) | 0.375
C=C(C=O)C[C@H]1C[C@H](O)[C@]2(C)O[C@@H]3C[C@@H]4O[C@@H]5C[C@]6(C)O[C@]7(C)CC[C@@H]8O[C@@H]9C[C@]%10(C)O[C@@H]%11C(C)=CC(=O)O[C@H]%11C[C@H]%10O[C@H]9C[C@@H](C)[C@H]8O[C@H]7C[C@H]6O[C@@]5(C)C/C=C\[C@H]4O[C@H]3C[C@H]2O1 | > 10
CN1C(=O)CCC1c1cccnc1 (configuration not stated) [CAS_21906] | 5
C[N+](C)(C)CCCCCCCCCC[N+](C)(C)C [Decamethonium Iodide] | 3.13
C[N+](C)(C)CCCCCC[N+](C)(C)C [Hexamethoniumdibromide] | > 10
CN1[C@@H](C[C@@H](O)c2ccccc2)CCC[C@H]1CC(=O)c1ccccc1 [Lobeline] | 0.009
COc1cc2c3cc1Oc1cc(ccc1O)C[C@@H]1c4c(cc(OC)c(O)c4Oc4ccc(cc4)C[C@@H]3N(C)CC2)CC[N+]1(C)C [Tubocurarine,d] | > 10
